From patent US8871753B2, “Macrocyclic compounds and their use as kinase inhibitors” (Incyte Corporation, priority 2008, dated 2014)
Counter-ions that a name gives are not always drawn. Like-named read-outs stand apart in the source and are kept apart here.

Assays:
Format in all cases: biochemical
[1] = biological target: T1, human JAK2 (a.a. 828-1132) (Homo sapiens, UniProt O60674); experiment: In vitro JAK kinase assay (HTRF, phosphorylation of a biotinylated peptide), JAK2
T1 construct: JAK2 (a.a. 828-1132); His tag (N); made in house; host or cells: insect cells (baculovirus)
T1 sequence (O60674 828-1132): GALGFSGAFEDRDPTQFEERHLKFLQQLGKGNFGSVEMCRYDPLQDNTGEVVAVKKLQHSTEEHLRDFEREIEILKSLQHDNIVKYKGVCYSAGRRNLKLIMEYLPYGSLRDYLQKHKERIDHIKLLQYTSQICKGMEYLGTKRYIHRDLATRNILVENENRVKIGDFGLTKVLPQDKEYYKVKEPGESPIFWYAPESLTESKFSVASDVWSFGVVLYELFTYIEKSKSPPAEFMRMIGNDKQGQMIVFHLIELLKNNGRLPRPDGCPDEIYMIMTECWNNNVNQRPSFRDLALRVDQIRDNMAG
Method in brief: (§1)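 Kinase reactions ran at room temperature for 1 h with ATP matched per isoform (JAK1 90 μM, JAK2 30 μM, JAK3 3 μM). After an EDTA stop, the phosphorylated biotin-peptide was read by HTRF using Eu-Py20 and SA-APC after 40 min binding.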

[2] = biological target: T2, human JAK3 (a.a. 781-1124) (Homo sapiens, UniProt P52333); experiment: In vitro JAK kinase assay (HTRF, phosphorylation of a biotinylated peptide), JAK3
T2 construct: JAK3 (a.a. 781-1124); His tag (N); made in house; host or cells: insect cells (baculovirus)
T2 sequence (P52333 781-1124): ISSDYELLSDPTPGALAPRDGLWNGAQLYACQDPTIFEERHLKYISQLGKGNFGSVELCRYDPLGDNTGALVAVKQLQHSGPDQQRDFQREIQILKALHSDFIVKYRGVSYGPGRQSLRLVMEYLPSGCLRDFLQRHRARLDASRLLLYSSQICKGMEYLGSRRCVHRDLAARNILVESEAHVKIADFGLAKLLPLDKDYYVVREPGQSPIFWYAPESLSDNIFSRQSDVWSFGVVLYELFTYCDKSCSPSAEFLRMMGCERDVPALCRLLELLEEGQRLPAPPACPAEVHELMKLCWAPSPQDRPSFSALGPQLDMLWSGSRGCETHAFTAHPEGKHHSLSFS
Method in brief: as §1

[3] = biological target: TYK2 (Homo sapiens, UniProt P29597); experiment: TYK2 kinase inhibition (Table A1)
TYK2, sequence (P29597 whole entry): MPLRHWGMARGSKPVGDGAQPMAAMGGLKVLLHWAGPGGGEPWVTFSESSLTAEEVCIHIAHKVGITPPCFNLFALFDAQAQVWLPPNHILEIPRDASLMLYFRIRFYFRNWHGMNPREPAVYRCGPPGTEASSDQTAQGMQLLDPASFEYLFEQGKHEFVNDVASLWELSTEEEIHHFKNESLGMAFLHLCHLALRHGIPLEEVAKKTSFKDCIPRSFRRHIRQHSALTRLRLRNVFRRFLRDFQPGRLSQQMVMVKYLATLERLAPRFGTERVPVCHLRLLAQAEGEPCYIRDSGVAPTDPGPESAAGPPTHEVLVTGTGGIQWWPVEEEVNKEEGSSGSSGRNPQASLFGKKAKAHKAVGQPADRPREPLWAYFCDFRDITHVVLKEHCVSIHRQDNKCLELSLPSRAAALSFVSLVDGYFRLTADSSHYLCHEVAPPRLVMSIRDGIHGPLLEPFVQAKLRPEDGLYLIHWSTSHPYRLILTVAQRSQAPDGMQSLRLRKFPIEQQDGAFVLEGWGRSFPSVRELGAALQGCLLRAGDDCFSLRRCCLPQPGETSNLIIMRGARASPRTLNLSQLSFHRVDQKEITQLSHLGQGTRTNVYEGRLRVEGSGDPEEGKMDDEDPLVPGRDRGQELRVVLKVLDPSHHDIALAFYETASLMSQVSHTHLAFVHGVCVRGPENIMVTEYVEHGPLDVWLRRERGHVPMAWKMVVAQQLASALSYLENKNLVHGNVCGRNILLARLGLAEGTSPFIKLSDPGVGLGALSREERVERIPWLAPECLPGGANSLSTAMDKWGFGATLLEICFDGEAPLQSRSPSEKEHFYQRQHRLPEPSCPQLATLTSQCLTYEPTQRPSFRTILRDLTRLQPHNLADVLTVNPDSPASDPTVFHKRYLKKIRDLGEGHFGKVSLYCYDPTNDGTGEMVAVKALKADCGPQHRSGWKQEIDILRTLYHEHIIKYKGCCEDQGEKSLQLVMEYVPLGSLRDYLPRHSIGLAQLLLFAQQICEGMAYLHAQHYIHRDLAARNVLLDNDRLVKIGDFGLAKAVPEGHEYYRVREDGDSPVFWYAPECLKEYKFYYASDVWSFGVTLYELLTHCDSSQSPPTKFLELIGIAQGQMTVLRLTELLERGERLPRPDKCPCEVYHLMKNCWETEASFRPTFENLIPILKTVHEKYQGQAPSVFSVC

[4] = biological target: T3, Recombinant Human Anaplastic Lymphoma Kinase (Homo sapiens, UniProt Q9UM73); experiment: ALK HTRF kinase assay
T3 construct: purchased Invitrogen, Carlsbad, Calif
T3 sequence (Q9UM73 19-1620): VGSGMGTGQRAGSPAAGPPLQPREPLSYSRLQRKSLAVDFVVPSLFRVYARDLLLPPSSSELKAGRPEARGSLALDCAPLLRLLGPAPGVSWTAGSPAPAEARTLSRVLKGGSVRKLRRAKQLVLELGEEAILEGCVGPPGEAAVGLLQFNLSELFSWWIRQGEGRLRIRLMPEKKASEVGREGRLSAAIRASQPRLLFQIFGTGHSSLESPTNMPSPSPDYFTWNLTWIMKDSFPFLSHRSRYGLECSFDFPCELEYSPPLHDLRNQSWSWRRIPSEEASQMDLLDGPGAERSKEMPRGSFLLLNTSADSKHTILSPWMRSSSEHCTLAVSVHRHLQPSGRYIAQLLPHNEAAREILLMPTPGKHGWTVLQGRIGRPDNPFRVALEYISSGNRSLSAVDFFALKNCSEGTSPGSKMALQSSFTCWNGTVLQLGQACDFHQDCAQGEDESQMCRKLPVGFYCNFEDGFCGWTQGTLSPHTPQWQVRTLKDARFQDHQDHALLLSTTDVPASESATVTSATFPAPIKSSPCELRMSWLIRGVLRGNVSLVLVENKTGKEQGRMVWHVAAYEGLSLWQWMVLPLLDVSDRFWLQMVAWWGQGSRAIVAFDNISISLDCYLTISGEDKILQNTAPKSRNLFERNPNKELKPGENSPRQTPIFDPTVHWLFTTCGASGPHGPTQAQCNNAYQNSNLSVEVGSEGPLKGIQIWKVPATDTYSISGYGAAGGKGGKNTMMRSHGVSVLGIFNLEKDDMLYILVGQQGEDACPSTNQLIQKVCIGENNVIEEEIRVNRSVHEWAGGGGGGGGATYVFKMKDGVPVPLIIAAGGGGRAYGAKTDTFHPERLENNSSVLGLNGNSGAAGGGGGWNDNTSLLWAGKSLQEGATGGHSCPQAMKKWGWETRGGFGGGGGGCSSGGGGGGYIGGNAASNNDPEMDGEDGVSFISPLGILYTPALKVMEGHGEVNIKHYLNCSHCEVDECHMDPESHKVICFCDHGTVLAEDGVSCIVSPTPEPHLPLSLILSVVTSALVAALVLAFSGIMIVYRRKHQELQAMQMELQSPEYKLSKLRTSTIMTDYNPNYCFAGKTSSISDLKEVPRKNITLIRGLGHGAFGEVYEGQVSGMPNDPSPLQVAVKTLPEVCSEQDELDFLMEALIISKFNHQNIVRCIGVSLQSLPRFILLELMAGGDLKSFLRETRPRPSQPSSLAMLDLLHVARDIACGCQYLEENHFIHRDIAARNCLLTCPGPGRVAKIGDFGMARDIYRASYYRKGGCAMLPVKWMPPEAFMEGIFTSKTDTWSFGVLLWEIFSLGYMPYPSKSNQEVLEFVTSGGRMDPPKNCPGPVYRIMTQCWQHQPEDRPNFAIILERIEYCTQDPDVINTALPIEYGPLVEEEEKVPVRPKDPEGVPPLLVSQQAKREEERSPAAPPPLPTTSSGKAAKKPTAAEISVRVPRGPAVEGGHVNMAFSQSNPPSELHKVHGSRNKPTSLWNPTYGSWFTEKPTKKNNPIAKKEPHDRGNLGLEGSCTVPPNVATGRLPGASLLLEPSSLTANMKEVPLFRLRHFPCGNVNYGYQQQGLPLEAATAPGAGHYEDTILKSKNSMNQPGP
Method in brief: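 Compounds were incubated with recombinant human ALK and a biotin-tagged peptide substrate. Product was captured with streptavidin-APC and probed with a europium anti-phosphotyrosine antibody, and plates were read for time-resolved fluorescence. Dose-response data were fitted to derive IC50.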

[5] = biological target: T4, human JAK1 (a.a. 837-1142) (Homo sapiens, UniProt P23458); experiment: In vitro JAK kinase assay (HTRF, phosphorylation of a biotinylated peptide), JAK1; details: read-out: JAK1 IC50
T4 construct: human JAK1 (a.a. 837-1142); His tag (N); made in house; host or cells: insect cells (baculovirus)
T4 sequence (P23458 849-1154): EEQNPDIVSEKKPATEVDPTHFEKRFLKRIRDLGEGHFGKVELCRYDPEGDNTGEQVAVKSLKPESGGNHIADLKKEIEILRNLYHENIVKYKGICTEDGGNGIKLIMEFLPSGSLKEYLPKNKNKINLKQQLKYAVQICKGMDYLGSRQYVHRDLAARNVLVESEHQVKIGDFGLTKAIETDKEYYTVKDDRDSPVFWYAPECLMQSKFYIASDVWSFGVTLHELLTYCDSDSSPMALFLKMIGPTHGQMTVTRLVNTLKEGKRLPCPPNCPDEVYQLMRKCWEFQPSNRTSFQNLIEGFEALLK
Method in brief: as §1

[6] = Table B1, cells without percent sign
[7] = method AA1 (30 μM ATP) or AA2 (1000 μM ATP), not stated per value
[8] = method AA1 (3 μM ATP) or AA2 (1000 μM ATP), not stated per value
[9] = compound at 500 nM or 1 mM, 90 μM ATP
[10] = method AA1 (90 μM ATP) or AA2 (1000 μM ATP), not stated per value

SMILES	IC50 ([1]; Table B1)	IC50 ([2]; Table B1)	IC50 ([3]; Table B1)	IC50 ([5]; Table B1)	IC50 [1, 7]	IC50 [2, 8]	IC50 [3]	ALK % of inhibition at a concentration of 500 nM or 1 mM [4, 9]	IC50 [5, 10]	further results
CCC(=O)Nc1ccc2cc1CCc1cccc(c1)Nc1ncc(Cl)c(n1)N2 [Example B54, N-[6-Chloro-2,4,8,22-tetraazatetracyclo[14.3.1.1(3,7).1(9,13)]docosa-1(20), 3(22),4,6,9(21),10,12,16,18-nonaen-12-yl]propanamide trifluoroacetate]	3.9 nM	5.9 nM	14 nM	4.9 nM						IC50 [4, 6]: 970 nM
O=C(NCCNS(=O)(=O)c1ccccc1)Nc1ccc2cc1CCc1cccc(c1)Nc1ncc(Cl)c(n1)N2 [Example B329, N-{2-[({[6-Chloro-2,4,8,22-tetraazatetracyclo[14.3.1.1(3,7).1(9,13)]docosa-1(20),3(22),4,6,9(21),10,12,16,18-nonaen-12-yl]amino}carbonyl)amino]ethyl}benzenesulfonamide trifluoroacetate]	3.2 nM	6.5 nM	5.8 nM	3 nM						ALK % of inhibition at a concentration of 500 nM or 1 mM ([4]; percentage inhibition of the example compound at a concentration of 500 nM or 1 mM (not specified which)): 20%
COc1cccc(S(=O)(=O)Nc2ccc3cc2CCc2cccc(c2)Nc2ncc(Cl)c(n2)N3)c1 [Example B157, N-[6-Chloro-2,4,8,22-tetraazatetracyclo[14.3.1.1(3,7).1(9,13)]docosa-1(20), 3(22),4,6,9(21),10,12,16,18-nonaen-12-yl]-3-methoxybenzenesulfonamide trifluoroacetate]	0.15 nM	0.3 nM	0.62 nM	0.51 nM						ALK % of inhibition at a concentration of 500 nM or 1 mM ([4]; compound at a concentration of 500 nM or 1 mM (not specified), cells shown as percentage): 87%
O=C(CC1CCN(C(=O)c2ccncc2)CC1)Nc1ccc2cc1CCc1cncc(c1)Nc1ncc(Cl)c(n1)N2 [Example A189, N-[6-Chloro-2,4,8,18,22-pentaazatetracyclo[14.3.1.1(3,7).1(9,13)]docosa-1(20),3(22),4,6,9(21),10,12,16,18-nonaen-12-yl]-2-(1-isonicotinoylpiperidin-4-yl)acetamide tris(trifluoroacetate)]					> 200 nM	> 200 nM	> 200 nM	21%	116 nM	
O=C(CC1CCN(S(=O)(=O)c2ccccc2OC(F)(F)F)CC1)Nc1ccc2cc1CCc1cncc(c1)Nc1ncc(Cl)c(n1)N2 [Example A227, N-[6-Chloro-2,4,8,18,22-pentaazatetracyclo[14.3.1.1(3,7).1(9,13)]docosa-1(20),3(22),4,6,9(21),10,12,16,18-nonaen-12-yl]-2-(1-{[2-(trifluoromethoxy)phenyl]sulfonyl}piperidin-4-yl)acetamide bis(trifluoroacetate)]					> 400 nM	> 400 nM	> 400 nM	22%	10 nM	
O=C(Nc1ccc2cc1CCc1cccc(c1)Nc1ncc(Cl)c(n1)N2)c1ccsc1 [Example B62, N-[6-Chloro-2,4,8,22-tetraazatetracyclo[14.3.1.1(3,7).1(9,13)]docosa-1(20), 3(22),4,6,9(21),10,12,16,18-nonaen-12-yl]thiophene-3-carboxamide trifluoroacetate]	1.9 nM	4.8 nM	2.7 nM	1.8 nM						IC50 [4, 6]: 210 nM
Clc1cnc2nc1Nc1cccc(c1)CSCCc1cccc(c1)N2 [Example D32, 6-Chloro-15-thia-2,4,8,24-tetraazatetracyclo[16.3.1.1(3,7).1(9,13)]tetracosa-1(22),3(24),4,6,9(23),10,12,18,20-nonaene trifluoroacetate]										IC50 ([1]; Table D1): 43 nM; IC50 ([2]; Table D1): 84 nM; IC50 ([3]; Table D1): 45 nM; IC50 ([4]; Table D1, 90 μM ATP): > 1000 nM; IC50 ([5]; Table D1): 41 nM
N#Cc1ccc(N2CCC(CC(=O)Nc3ccc4cc3CCc3cncc(c3)Nc3ncc(Cl)c(n3)N4)CC2)cc1 [Example A221, N-[6-Chloro-2,4,8,18,22-pentaazatetracyclo[14.3.1.1(3,7).1(9,13)]docosa-1(20),3(22),4,6,9(21),10,12,16,18-nonaen-12-yl]-2-[1-(4-cyanophenyl)piperidin-4-yl]acetamide tris(trifluoroacetate)]					> 200 nM	> 200 nM	> 200 nM	22%	44 nM	
